Assay results reported in patent US8586611B2 (priority 2005, dated 2013).

Legend:
Type in all cases: in vivo
Plasmopara viticola = experiment: Test B: grape downy mildew, spray 24 h after inoculation (disease rating, 100 = 100% disease control)
Summary of the method: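 Grape seedlings were inoculated with Plasmopara viticola and held 24 h saturated at 20 °C, then sprayed to run-off with compound suspension (acetone/water with 250 ppm Trem 014; 200 ppm ≈ 500 g/ha). After 5 days at 20 °C and 24 h saturation, disease was rated from 0 to 100% control versus untreated.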

Phytophthora infestans [1] = experiment: whole plant or invertebrate; conditions: tomato late blight
Phytophthora infestans [2] = experiment: whole plant or invertebrate; conditions: tomato late blight; remark: listed apart in the source
[3] = tested on: Erysiphe graminis f. sp. tritici; experiment: Test E: wheat powdery mildew, spray the day before inoculation (disease rating, 100 = 100% disease control)
Summary of the method: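 Wheat seedlings sprayed to run-off with compound suspended in acetone/water 50/50 with 250 ppm Trem 014 (200 ppm equivalent to 500 g/ha); inoculated next day with Erysiphe graminis f. sp. tritici spore dust. Kept 7 days at 20° C, then rated 0–100% disease control versus controls.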

[4] = spray 24 h after inoculation, tested at 40 ppm
[5] = spray the day before inoculation, tested at 40 ppm
[6] = spray 17 h after inoculation, tested at 40 ppm
[7] = spray 24 h after inoculation, compounds without asterisk (not 40 or 10 ppm)
[8] = spray the day before inoculation, compounds without asterisk (not 40 or 10 ppm)
[9] = spray 17 h after inoculation, compounds without asterisk (not 40 or 10 ppm)
[10] = sprayed 24 h after inoculation, unmarked compounds (no asterisk, not 40 or 10 ppm)
[11] = sprayed the day before inoculation, unmarked compounds (no asterisk, not 40 or 10 ppm)
[12] = sprayed 17 h after inoculation, unmarked compounds (no asterisk, not 40 or 10 ppm)
[13] = sprayed the day before inoculation, 7 days at 20° C., unmarked compounds (no asterisk, not 40 or 10 ppm)
[14] = sprayed 24 h after inoculation, tested at 10 ppm (**)
[15] = sprayed the day before inoculation, tested at 10 ppm (**)
[16] = sprayed 17 h after inoculation, tested at 10 ppm (**)
[17] = sprayed the day before inoculation, 7 days at 20° C., tested at 10 ppm (**)

Row | Structure (SMILES) | Test B disease rating (100 = 100% disease control, 0 = no disease control) (Plasmopara viticola; [7]) [%] | Test C disease rating (100 = 100% disease control, 0 = no disease control) (Phytophthora infestans [1]; [8]) [%] | Test D disease rating (100 = 100% disease control, 0 = no disease control) (Phytophthora infestans [2]; [9]) [%] | Test E disease rating (100 = 100% disease control, 0 = no disease control) [3, 8] [%] | other results
1 | COC1CCC(N(C)C(=O)c2csc(C3CCN(C(=O)Cn4nc(C(F)(F)F)cc4C)CC3)n2)c2ccccc21 (stereo not drawn) [compound 213] | – | – | – | – | Test B disease rating (100 = 100% disease control, 0 = no disease control) (Plasmopara viticola; [4]): 99%; Test C disease rating (100 = 100% disease control, 0 = no disease control) (Phytophthora infestans [1]; [5]): 100%; Test D disease rating (100 = 100% disease control, 0 = no disease control) (Phytophthora infestans [2]; [6]): 99%; Test E disease rating (100 = 100% disease control, 0 = no disease control) [3, 5]: 0%
2 | Cc1cc(C(F)(F)F)nn1CC(=O)N1CCC(c2nc(C(=O)N(C)C3c4ccccc4CC3O)cs2)CC1 (racemic) [compound 200] | – | – | – | – | Test B disease rating (100 = 100% disease control, 0 = no disease control) (Plasmopara viticola; [4]): 39%; Test C disease rating (100 = 100% disease control, 0 = no disease control) (Phytophthora infestans [1]; [5]): 98%; Test D disease rating (100 = 100% disease control, 0 = no disease control) (Phytophthora infestans [2]; [6]): 98%; Test E disease rating (100 = 100% disease control, 0 = no disease control) [3, 5]: 0%
3 | Cc1ccccc1C(C)N(C)C(=O)c1csc(C2CCN(C(=O)Cn3nc(C(F)(F)F)cc3C)CC2)n1 (stereo not drawn) [compound 243] | – | – | – | – | Test B disease rating (100 = 100% disease control, 0 = no disease control) (Plasmopara viticola; [4]): 91%; Test C disease rating (100 = 100% disease control, 0 = no disease control) (Phytophthora infestans [1]; [5]): 86%; Test D disease rating (100 = 100% disease control, 0 = no disease control) (Phytophthora infestans [2]; [6]): 82%; Test E disease rating (100 = 100% disease control, 0 = no disease control) [3, 5]: 0%
4 | Cc1ccc(C)c(CC(=O)N2CCC(c3nc(C(=O)N(C)C4CCCc5ccccc54)cs3)CC2)c1 (stereo not drawn) [compound 99] | 97 | 100 | 99 | 0 | –
5 | Cc1cc(C(F)(F)F)nn1CC(=O)N1CCC(c2nc(C(=O)N(C)C3CC(CO)c4ccccc43)cs2)CC1 (stereo not drawn) [compound 235] | 94 | 100 | 99 | 0 | –
6 | C[C@H](c1ccccc1)N(C)C(=O)c1csc(C2CCN(C(=O)Cc3cccnc3)CC2)n1 [compound 83] | 14 | 31 | 0 | 0 | –
7 | Cc1cccc(CC(=O)N2CCC(c3nc(C(=O)N(C)Cc4cccnc4)cs3)CC2)c1 [compound 164] | 1 | 60 | 0 | 0 | –
8 | COc1cccc2c1CCCC2N(C)C(=O)c1csc(C2CCN(C(=O)Cn3nc(C(F)(F)F)cc3C)CC2)n1 (stereo not drawn) [compound 196] | – | – | – | – | Test B disease rating (100 = 100% disease control, 0 = no disease control) (Plasmopara viticola; [4]): 97%; Test C disease rating (100 = 100% disease control, 0 = no disease control) (Phytophthora infestans [1]; [5]): 100%; Test D disease rating (100 = 100% disease control, 0 = no disease control) (Phytophthora infestans [2]; [6]): 99%; Test E disease rating (100 = 100% disease control, 0 = no disease control) [3, 5]: 0%
9 | Cc1cc(C(F)(F)F)nn1CC(=O)N1CCC(c2nc(C(=O)N3CCCCC3)cs2)CC1 [compound 307] | – | – | – | – | Test B disease rating (100 = 100% disease control, 0 = no disease control) (Plasmopara viticola; [10]): 79; Test C disease rating (100 = 100% disease control, 0 = no disease control) (Phytophthora infestans [1]; [11]): 100; Test D disease rating (100 = 100% disease control, 0 = no disease control) (Phytophthora infestans [2]; [12]): 26; Test E disease rating (100 = 100% disease control, 0 = no disease control) [3, 13]: 0
10 | Cc1nc(CC(=O)N2CCC(c3nc(C(=O)N(C)[C@H](C)c4ccccc4)cs3)CC2)cs1 [compound 91] | 16 | 99 | 79 | 0 | –
11 | C[C@@H](NC(=O)c1csc(C2CCN(C(=O)Cc3cccc(Br)c3)CC2)n1)c1ccc([N+](=O)[O-])cc1 [compound 273] | – | – | – | – | Test B disease rating (100 = 100% disease control, 0 = no disease control) (Plasmopara viticola; [10]): 44; Test C disease rating (100 = 100% disease control, 0 = no disease control) (Phytophthora infestans [1]; [11]): 0; Test D disease rating (100 = 100% disease control, 0 = no disease control) (Phytophthora infestans [2]; [12]): 0; Test E disease rating (100 = 100% disease control, 0 = no disease control) [3, 13]: 0
12 | CCN(C(=O)c1csc(C2CCN(C(=O)Cc3cc(C)ccc3C)CC2)n1)[C@H](C)c1ccccc1 [compound 286] | – | – | – | – | Test B disease rating (100 = 100% disease control, 0 = no disease control) (Plasmopara viticola; [10]): 39; Test C disease rating (100 = 100% disease control, 0 = no disease control) (Phytophthora infestans [1]; [11]): 23; Test D disease rating (100 = 100% disease control, 0 = no disease control) (Phytophthora infestans [2]; [12]): 0; Test E disease rating (100 = 100% disease control, 0 = no disease control) [3, 13]: 52
13 | COc1ccccc1C(C)N(C)C(=O)c1csc(C2CCN(C(=O)Cn3nc(C(F)(F)F)cc3C)CC2)n1 (stereo not drawn) [compound 255] | – | – | – | – | Test B disease rating (100 = 100% disease control, 0 = no disease control) (Plasmopara viticola; [14]): 25; Test C disease rating (100 = 100% disease control, 0 = no disease control) (Phytophthora infestans [1]; [15]): 9; Test D disease rating (100 = 100% disease control, 0 = no disease control) (Phytophthora infestans [2]; [16]): 0; Test E disease rating (100 = 100% disease control, 0 = no disease control) [3, 17]: 0
14 | Cc1cc(C)nc(CC(=O)N2CCC(c3nc(C(=O)N(C)[C@@H]4CCCc5ccccc54)cs3)CC2)c1 [compound 215] | 0 | 100 | 99 | 0 | –
15 | C[C@H](c1ccccc1)N(C)C(=O)c1csc(C2CCN(C(=O)Cn3cnc(C4CCCCC4)n3)CC2)n1 [compound 140] | 0 | 0 | 0 | 0 | –
16 | Cc1cc(C(F)(F)F)nn1CC(=O)N1C=CC(c2nc(C(=O)N(C)[C@@H]3CCCc4ccccc43)cs2)CC1 (stereo partly drawn) [Compound 315, N-methyl-2-[1,2,3,4-tetrahydro-1-[[5-methyl-3-(trifluoromethyl)-1H-pyrazol-1-yl]acetyl]-4-pyridinyl]-N-[(1R)-1,2,3,4-tetrahydro-1-naphthalenyl]-4-thiazolecarboxamide] | – | – | – | – | Test B disease rating (100 = 100% disease control, 0 = no disease control) (Plasmopara viticola; [14]): 72; Test C disease rating (100 = 100% disease control, 0 = no disease control) (Phytophthora infestans [1]; [15]): 100; Test D disease rating (100 = 100% disease control, 0 = no disease control) (Phytophthora infestans [2]; [16]): 88; Test E disease rating (100 = 100% disease control, 0 = no disease control) [3, 17]: 0
17 | Cc1nc(C2CCN(C(=O)Cn3nc(C(F)(F)F)cc3C)CC2)sc1C(=O)N(C)[C@@H]1CCCc2ccccc21 [compound 227] | 44 | 63 | 0 | 0 | –
18 | Cc1cc(C(F)(F)F)nn1CC(=O)N1CCC(n2cc(C(=O)N(C)[C@@H]3CCCc4ccccc43)nn2)CC1 [compound 217] | 52 | 99 | 40 | 0 | –
